{"source": "patent US5955578A", "about": "“Polypeptide-polymer conjugates active in wound healing” (La Jolla Cancer Research Foundation, priority 1995, dated 1999)", "key": {"[1]": {"test_system": "full thickness skin incisions", "assay": "Wound tensile strength in rat full thickness dermal incisions", "assay_type": "in vivo, Wistar Furth rats", "experimental": "Wistar Furth adult male rats (175-250g) were anesthetized by intraperitoneal injection of pentobarbital (60 mg/kg body weight). The rats dorsal area was closely shaved, and each animal was positioned and secured for surgery. Using aseptic technique, five full thickness skin incisions, 1.5 cm long, were made on the dorsal area. Each incision was treated with 0.05-0.10 ml of a blind sample of the peptide RRRRRRGDSPK-conjugated to hyaluronate or with 0.05-0.10 ml of human fibronectin (3 mg/ml in PBS, Colloborative Research, Bedford, Mass.) or rat fibronectin (2 mg/ml in PBS, Telios Pharmaceuticals, San Diego, Calif.) or was left untreated as a control. After treatment, the incisions were closed using standard 4-0 nylon sutures for placement of 5 to 7 interrupted sutures. The rats were returned to their cages for recovery and observation. At post operative days 2 through 7 and 10, six animals were anesthetized as above and were euthanized by an intracardiac injection of 0.5 cc of T-61.\nFollowing euthanasia, the pelt was removed from the rat and 5 mm wide by 2 cm long skin strips bisecting incisions were prepared. Histological specimens from the skin adjacent to the tensile strength strip were also taken. To measure tensile strength, one end of the strip was clipped using a 1 mm Michel Clipper (Militex Instruments Co.) which was tied to a Grass model FTO3C force displacement transducer. The other end of the strip was clipped using a light weight hemostat which was attached to a Harvard Model 901 push-pull infusion pump (Harvard Instruments, Millis, Mass.) using cotton thread over a pulley. The transducer was attached to a Grass polygraph (Model 7D) for recording the results. After calibration, the pump was turned on to pull at the rate of 64 mm/min. The amount of force required to pull the skin apart at the incision was recorded on the polygraph."}, "[2]": {"test_system": "PVA sponges implanted under the skin", "assay": "Polyvinylalcohol sponge implant model", "assay_type": "in vivo, rats", "experimental": "Peptide-hyaluronate conjugates were tested using the model of Davidson, et al., J. Cell Biol. 100: 1219-1227 (1985), which is incorporated herein by reference. This model involves the implantation of inert PVA sponges loaded with the conjugates or control materials under the skin of rats. The sponges were removed from the animals at 4 to 10 days after implantation and analyzed for cell ingrowth number and type and as collagen content, blood vessel formation (angiogenesis) and inflammatory response, as well as persistence of the conjugate in the wound."}, "[3]": {"test_system": "dry eye condition", "assay": "Dry eye syndrome induced by excision of tear ducts", "assay_type": "in vivo", "conditions": "cats; eye drops from day 17 to day 43; conjugate at 100 mg/ml", "experimental": "The dry eye conditon was induced in six cats on day zero by the excision of tear ducts from the eyes. The cats were divided into two groups and treated as follows:\nGroup one was treated with two drops of human fibronectin, 3 mg/ml, a day twice a day from day 17 to day 34, and two drops a day three times a day from day 34 to 43. Group two was treated with two drops of chondroitin sulfate-peptide conjugate, G(dR)5 G3 (dR)GDSPASSK 100 mg/ml, a day twice a day from days 17 to 34, and two drops a day three times a day from day 34 to day 43."}, "[4]": {"assay": "In vitro assays of the type described in Pierschbacher et al. (1983)", "assay_type": "cell-based"}, "[5]": {"conditions": "early time points, effect diminishing at later time points"}}, "note": "Where no end group is shown, it is not given here. [ ]: non-standard residue; d: D form."}
{"substance": "RRRRRRGDSPK-conjugated to hyaluronate: peptide RRRRRRGDSPK coupled to hyaluronic acid by EDC, method of Example II (also: conjugated to hyaluronic acid by EDC)", "values": [{"measurement": "wound strength, % of the strength of untreated wounds", "setting": "[1]; day 5 after incision (maximum effect), 0.05-0.10 ml per incision", "result": 211, "unit": "%"}, {"measurement": "wound strength versus untreated control", "setting": "[1]; days 3 through 7 after incision", "result": "increased"}, {"measurement": "angiogenesis", "setting": "[2]; [5]", "result": "increased"}, {"measurement": "collagen secretion", "setting": "[2]; [5]", "result": "increased"}, {"measurement": "fibroblast migration", "setting": "[2]; [5]", "result": "increased"}, {"measurement": "collagen deposition into the sponges versus control sponges", "setting": "[2]; up to the end of the experiment", "result": "more collagen was continuously deposited"}]}
{"substance": "chondroitin sulfate-peptide conjugate: peptide of Example I, G(dR)5G3(dR)GDSPASSK, coupled to chondroitin sulfate with EDC; 74 mg peptide/g conjugate (G[dR][dR][dR][dR][dR]GGG[dR]GDSPASSK; also: coupled to chondroitin sulfate with EDC)", "values": [{"measurement": "dry eye condition (impression cytology, rose bengal staining)", "setting": "[3]", "result": "marked reduction of the dry eye condition"}]}
{"substance": "conjugates employing the peptide G(dR)5 G3 (dR)GDSPASSK: peptide G(dR)5G3(dR)GDSPASSK coupled to hyaluronic acid with EDC, 20 to 30% peptide by weight (G[dR][dR][dR][dR][dR]GGG[dR]GDSPASSK; also: coupled to hyaluronic acid with EDC)", "values": [{"measurement": "wound strength, % of control", "setting": "[1]; day 2", "result": 160, "unit": "%"}, {"measurement": "wound strength activity versus control (persistence)", "setting": "[1]; through day 10", "result": "greater than control"}, {"measurement": "in vitro activity compared with the conjugate of Example V", "setting": "[4]", "result": "more activity than the RGGDSPK peptide conjugate"}]}
